This assay concerns the target T1, human dopamine transporter (hDAT) (Homo sapiens, UniProt Q01959, I248Y).
T1 construct: gene SLC6A3; hDAT-I248Y expressed in HEK293S cells
In kind it is cell-based.

The structures appear in SMILES notation.

T1 sequence (Q01959 whole entry I248Y): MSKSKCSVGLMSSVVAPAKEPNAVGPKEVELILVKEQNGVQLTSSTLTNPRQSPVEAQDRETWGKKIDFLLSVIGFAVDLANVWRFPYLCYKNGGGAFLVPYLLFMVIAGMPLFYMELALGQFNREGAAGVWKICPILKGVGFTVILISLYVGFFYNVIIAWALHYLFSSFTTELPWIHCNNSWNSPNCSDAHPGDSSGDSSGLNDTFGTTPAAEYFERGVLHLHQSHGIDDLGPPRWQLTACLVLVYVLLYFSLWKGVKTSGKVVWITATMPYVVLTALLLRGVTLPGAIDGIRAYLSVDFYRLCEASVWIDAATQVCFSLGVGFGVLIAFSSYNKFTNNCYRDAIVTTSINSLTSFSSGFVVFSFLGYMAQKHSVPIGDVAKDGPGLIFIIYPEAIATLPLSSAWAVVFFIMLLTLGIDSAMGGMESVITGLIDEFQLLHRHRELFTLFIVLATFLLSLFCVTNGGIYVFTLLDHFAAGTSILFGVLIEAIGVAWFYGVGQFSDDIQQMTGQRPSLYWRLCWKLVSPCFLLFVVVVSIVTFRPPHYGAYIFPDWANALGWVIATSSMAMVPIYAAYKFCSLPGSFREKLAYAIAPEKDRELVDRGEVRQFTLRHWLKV

Regarding `NCCc1ccc(O)c(O)c1` [dopamine], the “[3H]dopamine uptake in cells” value is given as “the I248Y mutant was also able to transport dopamine (S2 Fig)”.
